Test results published in patent US9624235B2, “Compounds and methods for inhibition of AP endonuclease-1/redox factor-1 (HAPE1) activity” (University of Pittsburgh—Of the Commonwealth System of …, priority 2012, dated 2017).
Read-outs that look alike come from different tables or passages of the source.

Columns and labels:
[1] = test system: aldehyde reactive sites in genomic DNA from T98G cells; assay type: cell-based, human
Description: Quantification of Abasic Sites. T98G cells maintained in growth medium, were harvested by Trypsin-EDTA treatment, resuspended in fresh growth medium at a density of 2.5×10^5 cells mL^−1, and 2 mL (5×10^5 cells) of this suspension was seeded into the wells of a sterile 6-well tissue culture plate. Cells were allowed to grow for 24 h, treated with the various compounds for different time points and/or at different concentrations. At the end of each treatment, adherent cells were harvested by trypsin-EDTA treatment and pooled with live and dead cells in culture supernatant. Pooled cells in suspension were pelleted by centrifugation, washed with 1×PBS and genomic DNA was isolated using the DNAzol reagent (Invitrogen). DNA in solution was quantified by UV absorbance (λ260 nm) using a Synergy H1 multiwell plate reader (BioTek, Winooski, Vt.). Abasic sites in purified DNA were then reacted with the biotin-conjugated aldehyde reactive probe (ARP), immobilized onto 96-well ELISA plates, and detected using horseradish peroxidase (HRP)-conjugated streptavidin using a colorimetric substrate as per manufacturer's instructions (Dojindo Molecular Technologies, Rockville, Md.).
The biotin tagged ARS are quantified using an avidin-biotin assay, followed by colorimetric detection with horseradish peroxidase conjugated to avidin.

MOLT-4 = experiment: NCI 60 cell line growth inhibition; assay type: cell-based; details: Homo sapiens; MOLT-4 line
T98G cells [2] = experiment: Potentiation of MeLex cytotoxicity, short term (72 h) MTS assay; assay type: cell-based, human
Description: (§1) Cytotoxic Potentiation of Various DNA Damaging Agents. T98G cells maintained in growth medium were resuspended in fresh growth medium and seeded into 96-well plates at 2000 cells/well (short term cytotoxicity) or 100 cells/well (long term cytotoxicity) as described in the previous section. After 24 h, the cells were treated with serial dilutions of various DNA damaging drugs in absence or presence of APE-1 inhibitors. At the end of the treatment period, cell survival was assayed using CellTiter 96 AQueous or CyQUANT kits for the short- and long-term studies respectively.
(§2) Toxicity. It was assumed that inhibition of APE-1 activity would be lead to toxicity since genetic deletion of the protein is lethal to cells. […] The toxicities were also determined in combination with the DNA minor groove methylating agent, MeLex. MeLex efficiently and selectively generates N3-methyladenine, which is converted into an abasic site by a BER glycosylase and/or hydrolytic depurination. The T98G cell line is relatively resistant to DNA damaging anticancer agents due to expression of multiple drug resistance proteins and O^6-alkylguanine-DNA alkyltransferase. […] A goal of the development of APE-1 inhibitors is to determine if they can be used to enhance the activity of DNA alkylating agents.

T98G cells [3] = experiment: Potentiation of MeLex cytotoxicity, long term (10 d) CyQUANT assay; assay type: cell-based, human
Description: as §1, §2

[4] = test system: NCI panel of 60-cell lines; experiment: NCI 60 cell line growth inhibition; assay type: cell-based; details: NCI 60 cell lines; read-out: average growth inhibition (GI50) in all the lines
APE-1 = APE-1 (Homo sapiens (Human), UniProt P27695); experiment: Molecular beacon assay for APE-1 endonuclease inhibition; assay type: biochemical
APE-1, sequence (P27695 whole entry): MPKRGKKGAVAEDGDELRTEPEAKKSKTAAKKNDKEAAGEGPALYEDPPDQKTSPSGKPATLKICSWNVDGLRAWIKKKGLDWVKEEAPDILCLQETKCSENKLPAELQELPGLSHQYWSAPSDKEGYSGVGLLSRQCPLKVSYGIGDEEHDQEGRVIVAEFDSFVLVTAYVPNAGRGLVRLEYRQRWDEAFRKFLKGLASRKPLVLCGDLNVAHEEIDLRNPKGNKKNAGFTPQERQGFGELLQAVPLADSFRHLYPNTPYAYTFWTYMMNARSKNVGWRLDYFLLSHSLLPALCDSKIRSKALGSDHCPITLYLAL
Text: Screening Assays for APE1 Inhibition—The initial screen was designed to look at the effect of potential inhibitors on APE1 repair kinetics. The approach can be used as a high throughput screen by choosing a specific timepoint to monitor. The screen utilizes a molecular beacon with a tetrahydrofuran (THF) abasic site within the stem region of a DNA hairpin that has a fluorophore on the 5′-terminus and a quencher on the 3′-terminus (FIG. 2a). […] An example of the molecular beacon screen and the excision assay are shown in FIGS. 2b,c and 2d, respectively.
Molecular Beacon Assay for Screening of APE-1 Inhibitors. A fluorescence-based molecular beacon assay to measure APE-1 protein activity and inhibition was performed as described previously with some modifications. Tang et al. Neuro Oncol. 13, 471-486 (2011) APE-1 (2 nM) in 10 mM HEPES (pH 7.8) 0.5 mM MgCl, 100 mM NaCl, 100 mM KCl, 0.0005% (w/v) BSA, was incubated with 20 nM 5′-(F)-CGACTXTTGAATTGACACGCCATGTCGATCAATTCAATAGTCG-(D)-3′ [X=tetrahydrofuran (THF) abasic site modification; F, 6-carboxyfluorescein (6-FAM); and D, DABCYL] that forms a hairpin with a 15 base pair stem and a 13 base loop. The THF modification is a known substrate for APE-1 excision. APE-1 mediated cleavage of the phosphodiester backbone at the THF-abasic site led to release of the 5′ 6-FAM (fluorophore) containing pentanucleotide, disrupting the Förster Resonance Energy Transfer (FRET) mediated quenching of the 6-FAM by DABCYL in the native hairpin oligomer. Since the signal was generated by continuous liberation of the fluorophore-labeled excision fragment, progress of this reaction could be monitored in real-time using a Cary Eclipse fluorescence spectrometer (Varian, Palo Alto, Calif.) or a Synergy H1 multi-well plate reader (BioTek, Winooski, Vt.). Reactions were optimized to yield ˜90% substrate turnover in 10 min, and fluorescence intensities measured every 12 s at 495 nm excitation and 520 nm emission. Data from the first 1-3 min of the assays (linear phase) were used to determine rate of substrate turnover (V0). The Michaelis constant (KM) was deduced experimentally, by incubating 2 nM APE-1 protein with 2-500 nM hairpin DNA substrate and measuring V0 —the experimentally observed V0 were analyzed as a function of substrate concentration [S] via non-linear regression using Prism (v.4; GraphPad Software, Inc., La Jolla, Calif.) and the KM was calculated as per the algorithm in the software package. To assay inhibition, 2 nM APE-1 protein was pre-incubated with 0.05-10.00 μM of the candidate inhibitors at 25° C. for 60 min, before initiating the excision assay by addition of hairpin DNA substrate. V0 was calculated at various concentrations of inhibitors and represented as inverse function of increasing inhibitor concentration [I]. […] All assays were carried out in three independent sets to obtain mean data and standard error of mean.
Screening for APE-1 Inhibitors. […] In this assay, the DNA hairpin substrate has a 6-FAM fluorophore on the 5′-terminus, a DABACYL fluorescence quencher on the 3′-terminus and a THF abasic site located 6 base pairs from the 5′-terminus in the stem region (FIG. 6). APE-1 activity is monitored as an increase in fluorescence due to the release of the 5′-(6-FAM)-GCACT fragment as a function of time. […] In this assay, substrate turnover was calculated from relative intensities of cleaved vs. intact oligomers and correlated with inhibitor concentration.

For `CCn1c2ccccc2c2cc(/C=N/Nc3cc(C)nc4cc5c(cc34)OCO5)ccc21` [Compound 4], the “level of ARS” value ([1]; 0.25 μM compound, maintained from 6 h until 18 h) was “approximately 17 ARS/10^5 nucleotides”, the “level of ARS in combination with MeLex” value ([1]; 80 μM MeLex + 0.25 μM inhibitor, through at least 12 h) was 63 sites/10^5 nucleotides and the GI50 (MOLT-4) was 133 nM. The “LD50 of MeLex in the presence of LD10 concentration of inhibitor” value (T98G cells [2]; 72 h MTS assay) was 49 µM, the “maximum potentiation of MeLex” value (T98G cells [2]; short term assay) was “approximately 5 fold” and the “LD50 of MeLex in the presence of LD10 concentration of inhibitor” value (T98G cells [3]) was 1.6 µM. For the same molecule, the “maximum potentiation of MeLex” value (T98G cells [3]) was “approximately 5 fold”, the GI50 [4] was 4400 ± 2600 nM and the Ki (APE-1; molecular beacon assay, endonuclease activity, read-out: Ki APE-1 endonuclease inhibition) was 120 nM. It also gave a Ki (APE-1; molecular beacon screen, read-out: Ki, inhibition curve FIG. 2(c)) of 345 nM.
